Like-named read-outs stand apart in the source and are kept apart here.
What was measured:
human CB2 receptors = target: T1, human CB2 receptors (Homo sapiens, UniProt P34972); assay: human CB2 radioligand binding assay ([3H]CP 55,940 competition); details: HEK293 membranes, 0.5 nM [3H]CP 55,940
T1 construct: expressed in transfected cells; host or cells: HEK293
Procedure: (§1) The CB1 and CB2 radioligand binding assays described herein are utilized to ascertain the affinity of compounds of the present application for binding to CB2 relative to CB1 receptors.
HEK293 cells stably expressing human CB2 receptors were grown until a confluent monolayer was formed. Briefly, the cells were harvested and homogenized in TE buffer (50 mM Tris-HCl, 1 mM MgCl2, and 1 mM EDTA) using a polytron for 2×10 second bursts in the presence of protease inhibitors, followed by centrifugation at 45,000×g for 20 minutes. The final membrane pellet was re-homogenized in storage buffer (50 mM Tris-HCl, 1 mM MgCl2, and 1 mM EDTA and 10% sucrose) and frozen at −78° C. until used. Saturation binding reactions were initiated by the addition of membrane preparation (protein concentration of 5 μg/well for human CB2) into wells of a deep well plate containing [^3H]CP 55,940 (120 Ci/mmol, a nonselective CB agonist commercially available from Tocris) in assay buffer (50 mM Tris, 2.5 mM EDTA, 5 mM MgCl2, and 0.5 mg/mL fatty acid free BSA, pH 7.4). After 90 min incubation at 30° C., binding reaction was terminated by the addition of 300 μL/well of cold assay buffer followed by rapid vacuum filtration through a UniFilter-96 GF/C filter plates (pre-soaked in 1 mg/mL BSA for 2 hours). The bound activity was counted in a TopCount using Microscint-20. Saturation experiments were conducted with twelve concentrations of [^3H]CP 55,940 ranging from 0.01 to 8 nM. Competition experiments were conducted with 0.5 nM [^3H]CP 55,940 and five concentrations (0.01 nM to 10 μM) of displacing ligands. The addition of 10 μM unlabeled CP 55,940 (Tocris, Ellisville, Mo.) was used to assess nonspecific binding.

rat CB2 = target: T2, rat CB2 (Rattus norvegicus, UniProt Q9QZN9); assay: rat CB2 radioligand binding assay ([3H]CP 55,940 competition); set-up: expressed in transfected cells; host or cells: HEK293; details: HEK293 membranes, 0.5 nM [3H]CP 55,940
T2 sequence (Q9QZN9 1-360): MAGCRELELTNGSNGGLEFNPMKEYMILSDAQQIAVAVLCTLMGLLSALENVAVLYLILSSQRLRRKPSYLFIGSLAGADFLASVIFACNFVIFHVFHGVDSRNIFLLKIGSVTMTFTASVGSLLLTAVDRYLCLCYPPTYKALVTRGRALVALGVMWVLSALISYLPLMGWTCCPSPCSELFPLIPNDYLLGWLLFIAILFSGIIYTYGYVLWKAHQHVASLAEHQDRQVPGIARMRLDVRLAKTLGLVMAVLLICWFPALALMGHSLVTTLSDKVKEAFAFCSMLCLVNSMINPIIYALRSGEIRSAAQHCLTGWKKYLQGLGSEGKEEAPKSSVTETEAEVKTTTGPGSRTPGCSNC
Procedure: as §1
HEK293 cells stably expressing rat CB2 receptors were grown until a confluent monolayer was formed. Briefly, the cells were harvested and homogenized in TE buffer (50 mM Tris-HCl, 1 mM MgCl2, and 1 mM EDTA) using a polytron for 2×10 second bursts in the presence of protease inhibitors, followed by centrifugation at 45,000×g for 20 minutes. The final membrane pellet was re-homogenized in storage buffer (50 mM Tris-HCl, 1 mM MgCl2, and 1 mM EDTA and 10% sucrose) and frozen at −78° C. until used. Saturation binding reactions were initiated by the addition of membrane preparation (protein concentration of 20 μg/well for rat CB2) into wells of a deep well plate containing [^3H]CP 55,940 (120 Ci/mmol, a nonselective CB agonist commercially available from Tocris) in assay buffer (50 mM Tris, 2.5 mM EDTA, 5 mM MgCl2, and 0.5 mg/mL fatty acid free BSA, pH 7.4). After 45 min incubation at 30° C., binding reaction was terminated by the addition of […] of cold assay buffer followed by rapid vacuum filtration through a UniFilter-96 GF/C filter plates (pre-soaked in 1 mg/mL BSA for 2 hours). The bound activity was counted in a TopCount using Microscint-20. Saturation experiments were conducted with twelve concentrations of [^3H]CP 55,940 ranging from 0.01 to 8 nM. Competition experiments were conducted with 0.5 nM [^3H]CP 55,940 and five concentrations of displacing ligands selected from the range of 0.01 nM to 10 μM. The addition of 10 μM unlabeled CP 55,940 (Tocris, Ellisville, Mo.) was used to assess nonspecific binding.

T1 sequence (P34972 whole entry): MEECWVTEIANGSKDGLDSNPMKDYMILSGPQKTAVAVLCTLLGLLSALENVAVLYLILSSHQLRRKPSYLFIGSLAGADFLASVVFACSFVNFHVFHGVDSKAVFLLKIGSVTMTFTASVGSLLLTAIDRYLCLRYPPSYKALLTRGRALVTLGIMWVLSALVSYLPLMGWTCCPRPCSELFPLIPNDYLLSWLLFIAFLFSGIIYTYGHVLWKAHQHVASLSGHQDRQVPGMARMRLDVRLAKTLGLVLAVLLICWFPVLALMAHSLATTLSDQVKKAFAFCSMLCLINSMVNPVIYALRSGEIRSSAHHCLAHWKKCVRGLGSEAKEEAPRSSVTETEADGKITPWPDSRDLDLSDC

SMILES	Ki (human CB2 receptors; human CB2 (Ki, nM)) [nM]	Ki (rat CB2; rat CB2 (Ki, nM)) [nM]	Ki (human CB2 receptors; read-out: human CB2 (Ki)) [nM]	Ki (rat CB2; read-out: rat CB2 (Ki)) [nM]
Cn1c(C(C)(C)C)c/c(=N\C(=O)c2cc(C(F)(F)F)ccc2OCC2(C)COC2)n1C[C@H]1CCCO1 [Example 19, N-{(3E)-5-tert-butyl-1-methyl-2-[(2R)-tetrahydrofuran-2-ylmethyl]-1,2-dihydro-3H-pyrazol-3-ylidene}-2-[3-methyloxetan-3-methoxyl]-5-(trifluoromethyl)benzamide]	> 1000	323	–	–
CO[C@H]1CCO[C@@H]1COc1ccc(C(F)(F)F)cc1C(=O)/N=c1\cc(C(C)(C)C)n(C)n1C[C@H]1CCCO1 [Example 22]	–	–	> 1000	424
CN(C[C@@H]1CCCO1)c1ccc(C(F)(F)F)cc1C(=O)/N=c1\cc(C(C)(C)C)n(C)n1C[C@H]1CCCO1 [Example 26, N-{(3E)-5-tert-butyl-1-methyl-2-[(2R)-tetrahydrofuran-2-ylmethyl-]-1,2-dihydro-3H-pyrazol-3-ylidene}-2-{methyl[(2S)-tetrahydrofuran-2-ylmethyl]amino}-5-(trifluoromethyl)benzamide]	> 1000	343	–	–
CC1=NOC(Cn2/c(=N/C(=O)c3cc(C(F)(F)F)ccc3OC[C@@H]3CCCO3)cc(C(C)(C)C)n2C)C1 (stereo partly drawn) [Example 31, N-{(3E)-5-tert-butyl-1-methyl-2-[(3-methyl-4,5-dihydroisoxazol-5-yl)methyl]-1,2-dihydro-3H-pyrazol-3-ylidene}-2-[(2S)-tetrahydrofuran-2-ylmethoxy]-5-(trifluoromethyl)benzamide]	239	63	–	–
Cn1c(C(C)(C)C)c/c(=N\C(=O)c2cc(C(F)(F)F)ccc2OCc2ccccn2)n1C[C@H]1CCCO1 [Example 38, N-{(3E)-5-tert-butyl-1-methyl-2-[(2R)-tetrahydrofuran-2-ylmethyl]-1,2-dihydro-3H-pyrazol-3-ylidene}-2-(pyridin-2-ylmethoxy)-5-(trifluoromethyl)benzamide]	–	26	> 1000	–
C[C@H](c1ccccc1)N1C[C@@H](COc2ccc(C(F)(F)F)cc2C(=O)/N=c2\cc(C(C)(C)C)n(C)n2C[C@H]2CCCO2)OC1=O [Example 44, N-{(3E)-5-tert-butyl-1-methyl-2-[(2R)-tetrahydrofuran-2-ylmethyl]-1,2-dihydro-3H-pyrazol-3-ylidene}-2-({(5 S)-2-oxo-3-[(1R)-1-phenylethyl]-1,3-oxazolidin-5-yl}methoxy)-5-(trifluoromethyl)benzamide]	> 1000	408	–	–
Cn1c(C(C)(C)C)c/c(=N\C(=O)c2cc(C(F)(F)F)ccc2OCCN2CCNC2=O)n1C[C@H]1CCCO1 [Example 48, N-{(3E)-5-tert-butyl-1-methyl-2-[(2R)-tetrahydrofuran-2-ylmethyl]-1,2-dihydro-3H-pyrazol-3-ylidene}-2-[2-(2-oxoimidazolidin-1-yl)ethoxy]-5-(trifluoromethyl)benzamide]	–	53	251	–
Cn1c(C(C)(C)C)c/c(=N\C(=O)c2cc(C(F)(F)F)ccc2OCC2CN(S(C)(=O)=O)C2)n1C[C@H]1CCCO1 [Example 54, N-{(3E)-5-tert-butyl-1-methyl-2-[(2R)-tetrahydrofuran-2-ylmethyl]-1,2-dihydro-3H-pyrazol-3-ylidene}-2-{[1-(methylsulfonyl)azetidin-3-yl]methoxy}-5-(trifluoromethyl)benzamide]	–	71	192	–
Cn1c(C(C)(C)C)c/c(=N\C(=O)c2cc(C(F)(F)F)ccc2OCC(C)(C)OCc2ccccc2)n1C[C@H]1CCCO1 [Example 55, 2-[2-(benzyloxy)-2-methylpropoxy]-N-{(3E)-5-tert-butyl-1-methyl-2-[(2R)-tetrahydrofuran-2-ylmethyl]-1,2-dihydro-3H-pyrazol-3-ylidene}-5-(trifluoromethyl)benzamide]	> 1000	458	–	–
CN1CCC[C@H]1COc1ccc(C(F)(F)F)cc1C(=O)/N=c1\ccc(C(C)(C)C)cn1C[C@H]1CCCO1 [Example 59, N-[(2E)-5-tert-butyl-1-[(2R)-tetrahydrofuran-2-ylmethyl]pyridin-2(1H)-ylidene]-2-{[(2S)-1-methylpyrrolidin-2-yl]methoxy}-5-(trifluoromethyl)benzamide]	294	69	–	–
Cn1c(C(C)(C)C)c/c(=N\C(=O)c2cc(C(F)(F)F)ccc2OC[C@@H]2CCCN2S(C)(=O)=O)n1C[C@H]1CCCO1 [Example 61, N-{(3E)-5-tert-butyl-1-methyl-2-[(2R)-tetrahydrofuran-2-ylmethyl]-1,2-dihydro-3 H-pyrazol-3-ylidene}-2-{[(2S)-1-(methylsulfonyl)pyrrolidin-2-yl]methoxy}-5-(trifluoromethyl)benzamide]	> 1000	433	–	–
CSC(C)(C)COc1ccc(C(F)(F)F)cc1C(=O)/N=c1\cc(C(C)(C)C)n(C)n1C[C@H]1CCCO1 [Example 64, N-{(3E)-5-tert-butyl-1-methyl-2-[(2R)-tetrahydrofuran-2-ylmethyl]-1,2-dihydro-3H-pyrazol-3-ylidene}-2-[2-methyl-2-(methylthio)propoxy]-5-(trifluoromethyl)benzamide]	–	–	328	114
Cn1c(C(C)(C)C)c/c(=N\C(=O)c2cc(C(F)(F)F)ccc2OCC(C)(C)S(C)(=O)=O)n1C[C@H]1CCCO1 [Example 65, N-{(3E)-5-tert-butyl-1-methyl-2-[(2R)-tetrahydrofuran-2-ylmethyl]-1,2-dihydro-3H-pyrazol-3-ylidene}-2-[2-methyl-2-(methylsulfonyl)propoxy]-5-(trifluoromethyl)benzamide]	–	–	> 1000	> 1000
Cn1c(C(C)(C)C)c/c(=N\C(=O)c2cc(C(F)(F)F)ccc2OC[C@@H]2CCN2S(C)(=O)=O)n1C[C@H]1CCCO1 [Example 67, N-{(3E)-5-tert-butyl-1-methyl-2-[(2R)-tetrahydrofuran-2-ylmethyl]-1,2-dihydro-3H-pyrazol-3-ylidene}-2-{[(2S)-1-(methylsulfonyl)azetidin-2-yl]methoxy}-5-(trifluoromethyl)benzamide]	> 1000	70	–	–
CN1CCC[C@H]1COc1ccc(C(F)(F)F)cc1C(=O)/N=C1\OC(C(C)(C)C)CN1C[C@H]1CCCO1 (stereo partly drawn) [Example 73, N-{(2Z)-5-tert-butyl-3-[(2R)-tetrahydrofuran-2-ylmethyl]-1,3-oxazolidin-2-ylidene}-2-{[(2S)-1-methylpyrrolidin-2-yl]methoxy}-5-(trifluoromethyl)benzamide]	–	–	291	230
C/C(COc1ccc(C(F)(F)F)cc1C(=O)/N=c1\cc(C(C)(C)C)n(C)n1C[C@H]1CCCO1)=N\OC1CCCCO1 (stereo partly shown) [Example 79]	–	–	> 1000	128
Cn1c(C(C)(C)C)c/c(=N\C(=O)c2cc(C(F)(F)F)ccc2OCC2CCSCC2)n1C[C@H]1CCCO1 [Example 80, N-{(3E)-5-tert-butyl-1-methyl-2-[(2R)-tetrahydrofuran-2-ylmethyl]-1,2-dihydro-3 H-pyrazol-3-ylidene}-2-(tetrahydro-2H-thiopyran-4-ylmethoxy)-5-(trifluoromethyl)benzamide]	–	75	126	–
